From US20250241902A1, “METHODS, COMPOSITIONS AND SYSTEMS FOR EVALUATION OF VISUAL FUNCTION” (BELITE BIO, INC, priority 2022, published 2025)
Several values for one entry are separate records, joined by “and”; a condition that tells them apart may be missing. Equal entries are not always repeated.

Tests used:
Format in all cases: in vivo, human
[1] = tested on: adolescent STGD1 patients; experiment: Clinical study: retinal thickness by SD-OCT (CST, MST, OST)
Description: In some embodiments, spectral domain-optical coherence tomography (SD-OCT) is used for evaluation of ocular disease or visual function. In some embodiments, SD-OCT provides in vivo cross-sectional and […] visualization of the retina and the RPE. In some embodiments, SD-OCT is used to detect the presence of RPE atrophy. In some embodiments, SD-OCT is used to evaluate ellipsoid zone (EZ) defect width. In some embodiments, the EZ line provides information on the integrity of the photoreceptors. In some embodiments, the EZ line provides useful information in early disease. In some embodiments, an image of SD-OCT is used to evaluate the central subfield retina thickness (CST). In some embodiments, an image of SD-OCT is used to evaluate the middle subfield retina thickness (MST). In some embodiments, an image of SD-OCT is used to evaluate the outer subfield retina thickness (OST). The therapeutic effect of a compound of Formula (I), also known as Tinlarebant, was evaluated in a group of individuals with adolescent STGD. The treatment covered Phase 1b and Phase 2. Phase 1b included a 4-week treatment and a 14-day follow-up. Phase 2 included a 2-year treatment and 1-month follow-up. A total of 13 individuals received the treatment: 5 males and 8 females. All 13 individuals had STGD 1 aged 12-18 years old. All 13 individuals received the treatment of a compound of Formula (I), a RBP4 inhibitor. The clinical study evaluated ocular and systemic safety and tolerability of the compound and determined the optimal dose, pharmacokinetics (PK), and […]. The study measured visual improvement by best corrected visual acuity (BCVA) test, self-reported visual questionnaire test, the change in lesion size by FAF, the change in retinal thickness and morphology by SD-OCT, the change in retinal sensitivity by microperimetry, and the change in quantitative AF. In addition, this study evaluated correlation between reduction in RBP4 and rate of lesion growth including change in autofluorescence.

[2] = tested on: adolescent STGD1 patients; experiment: Clinical study (Phase 1b/2): ocular and systemic safety and tolerability
Description: (§1) The therapeutic effect of a compound of Formula (I), also known as Tinlarebant, was evaluated in a group of individuals with adolescent STGD. The treatment covered Phase 1b and Phase 2. Phase 1b included a 4-week treatment and a 14-day follow-up. Phase 2 included a 2-year treatment and 1-month follow-up. A total of 13 individuals received the treatment: 5 males and 8 females. All 13 individuals had STGD 1 aged 12-18 years old. All 13 individuals received the treatment of a compound of Formula (I), a RBP4 inhibitor.
(§2) The clinical study evaluated ocular and systemic safety and tolerability of the compound and determined the optimal dose, pharmacokinetics (PK), and […]. The study measured visual improvement by best corrected visual acuity (BCVA) test, self-reported visual questionnaire test, the change in lesion size by FAF, the change in retinal thickness and morphology by SD-OCT, the change in retinal sensitivity by microperimetry, and the change in quantitative AF. In addition, this study evaluated correlation between reduction in RBP4 and rate of lesion growth including change in autofluorescence.
In addition, the treatment was able to maintain 80%-90% RBP4 reduction from baseline throughout the study. All patients received at least 7 months of the treatment. […] Delayed dark adaptation, night vision impairment, and xanthopsia/chromatopsia were the only drug related ophthalmic adverse events.

[3] = tested on: adolescent STGD1 patients; experiment: Clinical study: lesion size by fundus autofluorescence (FAF; DDAF/QDAF); details: for FAF lesion area: subject 3, right eye
Description: Fundus autofluorescence (FAF) imaging is used as an endpoint in clinical trials. FAF is used to detect lesion growth with more than one timepoint of measurements. The change in lesion area measured by FAF can be plotted against time to calculate lesion growth rate, e.g., how fast or slow a patient's macula or retina is degenerating as compared to placebo. FAF imaging is used to compare the rate of anatomical or structural deterioration or change to evaluate a drug or treatment's therapeutic effect, e.g., reduced worsening of the retina degeneration.
In some embodiments, fundus autofluorescence (FAF) is used for evaluation of ocular disease or visual function. In some embodiments, one or more retina images of FAF is used for detection of atrophic areas. In some embodiments, one or more retina images of FAF is used to gain detailed insight into the health of the retinal pigment epithelium (RPE). In some embodiments, one or more images of FAF may be high-contrast retina images. In some embodiments, two types of decreased autofluorescence (DAF) may be quantified. In some embodiments, one type of DAF may be definite DAF (DDAF) which includes an area having a level of darkness being defined as qualitatively definite. In some embodiments, the other type of DAF may be questionable DAF (QDAF) which includes an area having a level of darkness being defined as qualitatively questionable. In some embodiments, the size of decreased autofluorescence (DAF) lesion may be the sum of all DDAF and QDAF. In some embodiments, DAF may be expressed as an area in square millimeters (mm^2).
as §1, §2

[4] = subject 3, left eye, phase 2 baseline
[5] = subject 3, left eye, phase 2 month 6
[6] = subject 4, left eye, phase 2 baseline
[7] = subject 4, left eye, phase 2 month 6
[8] = subject 11, both eyes, phase 2 week 1 vs week 9

## CC(=O)N1CCc2c(C(=O)N3CCC(c4ccc(F)c(F)c4C(F)(F)F)CC3)n[nH]c2C1 [Tinlarebant]
[1]; cohort
  patients with improvement (increase in thickness) or no change in OST in both eyes: 4 patients
  patients with no change or growth in MST in at least one eye: 5 patients
  patients with no to little change in CST in at least one eye: 5 patients
[1]; cohort means, Table 4
  CST change, Left Eye (mean ± SD, μm): −8.83 ± 1.91 μm
  CST change, Right Eye (mean ± SD, μm): −10.15 ± 1.5 μm
  MST change, Left Eye (mean ± SD, μm): −7.92 ± 2.13 μm
  MST change, Right Eye (mean ± SD, μm): −6.77 ± 1.74 μm
  OST change, Left Eye (mean ± SD, μm): −7.60 ± 2.62 μm
  OST change, Right Eye (mean ± SD, μm): −8.08 ± 2.47 μm
[1]; left eye, cohort
  CST average thinning: 7.6±2.14 microns
  MST average thinning: 7.2±2.54 microns
  OST average thinning: 3.11±3.5 microns
[1]; right eye, cohort
  CST average thinning: 10.27±2.2 microns
  MST average thinning: 6.27±2.03 microns
  OST average thinning: 3.8±3.08 microns
[1]; [4]
  average thickness: center: 97 micron
  average thickness: central max: 202 micron
  average thickness: central min: 97 micron
  average thickness: marker: 97 micron
[1]; [5]
  average thickness: center: 112 micron
  average thickness: central max: 216 micron
  average thickness: central min: 104 micron
  average thickness: marker: 112 micron
[1]; subject 3, overall
  change in CST, MST, or OST: little to no change
[1]; subject 4, both eyes, especially left, phase 2 week 1 vs week 9
  change of OST: increase
[1]; subject 4, either eye, phase 2 week 1 vs week 9
  change of MST: little to no change
[1]; [6]
  average thickness: center: 63 micron
  average thickness: central max: 218 micron
  average thickness: central min: 57 micron
  average thickness: marker: 60 micron
[1]; [7]
  average thickness: center: 58 micron
  average thickness: central max: 199 micron
  average thickness: central min: 54 micron
  average thickness: marker: 56 micron
[1]; subject 11, both eyes (one value per eye, eye not assigned)
  retinal thickness growth (stated after OST): 15 microns and 16 microns
[1]; [8]
  change of OST: increase
[1]; subject 11, either eye, phase 2 week 1 vs week 9
  change of CST or MST: little to no change
[2]; 5 mg daily, adolescent STGD1 patients
  safety and tolerability: safe and well tolerated
[2]; 13 patients
  adverse events requiring discontinuation of treatment: no adverse events required discontinuation of treatment
  vital signs, physical exams, electrocardiogram (ECG), organ functions: No clinical significant findings
[2]; 13 patients, at least 7 months of treatment
  severe adverse events: No severe adverse events
[2]; after approximately 7 months of treatment (1 month Phase 1b, 6 months Phase 2)
  safety and tolerability: safe and well tolerated
[2]; all instances, 13 patients
  severity of delayed dark adaptation, night vision impairment, xanthopsia/chromatopsia (drug related ophthalmic adverse events): mild and transient
[2]; human, in vivo
  symptoms in patients with delayed dark adaptation: mostly asymptomatic
[2]; related adverse event
  Delayed Dark Adaptation: Frequency (subject): 8/13
  Night Vision Impairment: % Recovered: 0/1
  Night Vision Impairment: Frequency (subject): 1/13
  Xanthopsia/Chromatopsia: Frequency (subject): 9/13
[3]; cohort
  autofluorescence expansion (FAF), trend: trend of preventing or slowing autofluorescence expansion
  patients who maintained no DDAF lesion growth: 12 of the 13
  patients with no change or reduction in QDAF area in one or both eyes: 6 of 11
[3]; cohort, listed as compound of Formula (I)
  autofluorescence expansion (FAF), trend: trend in preventing or slowing autofluorescence expansion
[3]; left eye, cohort
  average change in QDAF area: 0.1±0.11 mm^2
[3]; right eye, cohort
  average change in QDAF area: 0.3±0.11 mm^2
[3]; subject 3, either eye, phase 2 week 1 vs week 9
  area size of QDAF: no increase
[3]; phase 2 baseline
  FAF lesion area: 2.7 mm^2
[3]; phase 2 month 6
  FAF lesion area: 2.7 mm^2
[3]; subject 4, left eye, Phase 2 Baseline vs Month 6 (FIG. 2A)
  QDAF in size: stabilization
[3]; subject 4, left or right eye, phase 2 week 1 vs week 9
  QDAF in size: no increase
[3]; [8]
  QDAF/DDAF change: transition of QDAF to DDAF
